Legend:
human islets and MSC = assay: Protection of human islets and MSC from hypoxia; type: cell-based
Text: (§1) Furthermore, DMOG protected the human islets and MSC from hypoxia by inhibiting Hypoxia-inducible Factor Prolyl Hydroxylase (HIF-Phase) resulted into augmentation of certain transcription factor(s) associated that could be highly beneficial for the islet and cell survival and function. Islets in particular are oxygen sensitive and when oxygen demand exceeds the supply, the HIF pathway is triggered to adapt for hypoxic conditions as a result of inactivation of HIF-Phase, an enzyme that contributes to degradation of HIF-1α. Thus, inhibiting HIF-Phase enzyme activity leads to increased HIF-1α protein in cells. Up-regulation of HIF-1α at transcriptional and translational levels leads to production of erythropoietin (EPO) and other proteins, including glycolytic enzyme, glucose transporter-1 (Glut-1) and vascular endothelial growth factor (VEGF). These factors are important to protect islets from cytokine induced cell death and also potentiate islet function, survival, and proliferation.

pancreatic ductal cells = assay: mRNA levels in pancreatic ductal cells treated with DMOG; type: cell-based, human; settings: DMOG 1 mM, one donor
Method: One donor was tested. The data are expressed as mean±SD.

IPTD-MSCs [1] = assay: Quantitative real-time PCR of IPTD-MSCs treated in vitro with TNF-α and DMOG; type: cell-based, human; settings: 24 hours; TNF-α 10 ng/ml and/or DMOG 1 mM; compared to control
Method: Recombinant human TNF-α protein (R&D Systems, Minneapolis, Minn.) was reconstituted in research-grade water (Hospira, Lake Forest, Ill.) to a concentration of 100 ng/mL, aliquoted and stored at −20° C. Dimethyloxallyl glycine (DMOG; Cayman Chemicals, Ann Arbor, Mich.) was dissolved in water to yield a stock solution of 57.1 mM, aliquoted (100 μL) and stored at −80° C. IPTD-MSCs were incubated in T-25 flasks in 5 ml of CMRL-1066 medium supplemented with 5% hPL until ˜50% confluent. Cells were cultured for 24 hours in CMRL 1066 medium, or medium containing 10 ng/ml TNF-α, 1 mM DMOG or 1 mM DMOG and 10 ng/ml TNF-α. Following treatment, cells were collected in 1.7-ml Eppendorf tubes and stored in RLT buffer (Qiagen, Germantown, Md.) at −80° C. for future preparation of cDNA.
The TaqMan Gene Expression Assay system (ThermoFisher Scientific) was used to quantify β-ACTIN, TSG-6, NRF2, and VEGF mRNA levels. Total RNA was extracted using a Qiagen Mini Kit (Cat. No. 51306) and converted into cDNA. Real-time quantitative PCR was run in duplicate on a ViiA™ 7 Real-Time PCR System with a 384-well block (ThermoFisher Scientific). Thermal cycles were programmed for 20 seconds at 95° C. for the initial denaturation, followed by 45 cycles of […] at 95° C. for denaturation, 30 seconds at 60° C. for annealing, 60 seconds at 72° C. for extension, and a final extension at 72° C. for 10 minutes. All PCR runs were performed with negative (water) and positive controls. β-ACTIN was used as an internal control to quantify relative gene expression.

[2] = tested on: pancreatic-derived human islets and MSCs; assay: HIF-1a, PHD and survival gene levels in DMOG-treated islets and MSCs; type: cell-based
Method: (§2) Islets of high and low purity, and mesenchymal stem cells (MSCs) as a potential source of human islets, isolated from human donor pancreata were treated with the PHD inhibitor DMOG. Alterations in gene expression, cell proliferation, survival and metabolism were characterized.
(§3) As shown in FIGS. 10-12, pancreatic-derived human islets and MSCs were treated with DMOG or control at several concentrations and time intervals. The levels of HIF-1a were increased and PHD decreased in DMOG-treated versus control cells, and in a dose-dependent manner.

[3] = tested on: IPTD-MSCs and islet cells; assay: TSG6 and VEGF expression in cells cultured under normoxic condition; type: cell-based, human; settings: normoxic condition (5% CO2, 21% O2)
Text: as §1

human islets = assay: mRNA levels in human islets treated with DMOG; type: cell-based; settings: DMOG 1 mM
Method: as §2, §3

[4] = tested on: pancreatic-derived human islets and MSCs; assay: Cytokine injury and proliferative capacity of DMOG-treated islets and MSCs in vitro; type: cell-based
Method: as §2, §3

IPTD-MSCs [5] = assay: Cytokine assay (Luminex) of supernatants from treated IPTD-MSCs; type: cell-based, human
Method: Supernatants from cells cultured for 24 hours under various conditions (medium alone, or medium plus DMOG, TNF-α, or DMOG+TNF-α) were collected, and cytokine analysis performed using a Luminex assay kit (Bio-Rad, Hercules, Calif.) according to the manufacturer's protocol. The following growth factors/cytokines were measured: VEGF, IL-6, IL-8, MMP-9, MCP-1, MMP-2, IL-4, IL-10 and […]. Sample were measured in duplicate.

[6] = tested on: Human umbilical vein endothelial cells (HUVECs); assay: In vitro angiogenesis assay: endothelial tube formation with IPTD-MSC conditioned media; type: cell-based; settings: 24 hours, media from treated IPTD-MSCs
Method: Angiogenic capacity was assessed by quantifying endothelial tube formation. Human umbilical vein endothelial cells (HUVECs) (Cell Applications Inc., San Diego, Calif.; Cat #200p-05n) between passages 2 to 6 were cultured in a standard medium. Cells (1×10^5 cells/well) were plated in 24-well plates (Fisher, Cat #930186) coated with Matrigel (Corning, Cat #356234), and incubated for 30 minutes to allow cell attachment. Supernatants (150 μL/well) from control and stimulated IPTD-MSCs (DMOG, TNF-α, or DMOG+TNF-α) were added to obtain a total volume of 300 μL per well. Plates were then incubated at 37° C., 5% CO2 for 24 hours. At 4 and 24 hours, the wells were visualized using a Leica microscope and representative photographic images were obtained. Total endothelial tube number and tube length were determined using ImageJ software (NIH, Bethesda, Md.).

diabetic mice = assay: Engraftment of DMOG-treated islets in diabetic mice; type: in vivo
[7] = DMOG-treated versus control cells, dose-dependent
[8] = culture medium after 24 hours, compared to control

## COC(=O)CNC(=O)C(=O)OC [DMOG, dimethyloxalylglycine]
Human islets and MSC
  protection from hypoxia: protected
Pancreatic ductal cells
  mRNA levels of TSG-6 gene: increased mRNA levels
  mRNA levels of VEGF gene: increased mRNA levels
IPTD-MSCs [1]
  NRF2 expression: significantly increased
  VEGF expression: significantly increased
[2]; DMOG treatment of islets and MSCs
  key survival genes (EPO, glycolytic enzyme, Glut-1, VEGF): upregulation
[2]; [7]
  levels of HIF-1a: increased
  levels of PHD: decreased
[3]; IPTD-MSCs and islet cells
  VEGF upregulated: 51 fold
[3]; IPTD-MSCs and islet cells for DMOG, MSC for TNF-α plus DMOG
  TSG6 upregulated: 31 fold
Human islets; human islets Fr 1, purity >70%
  mRNA levels of VEGF gene: increased mRNA levels
Human islets; human islets Fr 2, purity <50%
  mRNA levels of EPO gene: increased mRNA levels
  mRNA levels of INS gene: increased mRNA levels
  mRNA levels of PDX1 gene: increased mRNA levels
  mRNA levels of TSG-6 gene: increased mRNA levels
  mRNA levels of VEGF gene: increased mRNA levels
[4]
  proliferative capacity: higher proliferative capacity
  susceptibility to cytokine injury: less susceptible
IPTD-MSCs [5]; conditioned media after 24 hours
  Levels of MCP-1: reduced
IPTD-MSCs [5]; [8]
  secretion of IL-4: enhanced the secretion
  secretion of IL-6: enhanced the secretion
  secretion of IL-8: enhanced the secretion
  secretion of VEGF: enhanced the secretion
[6]
  numbers of cell tubes: 21.0±2.0
  tube length: 28.6±9.9 mm
Diabetic mice
  engraftment: increased engraftment
  glucose homeostasis: improved glucose homeostasis

## TNF-α
IPTD-MSCs [1]
  TSG-6 gene expression levels: significantly increased
IPTD-MSCs [5]; culture medium after 24 hours, compared to controls
  effect on any of the cytokines examined: did not have an effect
[6]
  numbers of cell tubes: no effect
  tube length: no effect

— patent US20210130789A1, “METHODS OF STROMAL CELL EXPANSION, USES AND MATERIALS RELATED THERETO” (CITY OF HOPE, priority 2019, published 2021)
